Structures are written as SMILES. Where a name gives a salt, the structure may show the parent alone.

The target in one test is PRMT5/MEP50 complex (Homo sapiens (Human), UniProt O14744). Description: Biochemical assay: PRMT5/MEP50 methylation of histone H2A with 3H-SAM, filter plate scintillation. The note with it: biochemical potency; read-out: PRTMT5/MEP50 IC50. The method, then: Biochemical Assay Protocol
PRMT5/MEP50 complex, sequence (O14744 whole entry): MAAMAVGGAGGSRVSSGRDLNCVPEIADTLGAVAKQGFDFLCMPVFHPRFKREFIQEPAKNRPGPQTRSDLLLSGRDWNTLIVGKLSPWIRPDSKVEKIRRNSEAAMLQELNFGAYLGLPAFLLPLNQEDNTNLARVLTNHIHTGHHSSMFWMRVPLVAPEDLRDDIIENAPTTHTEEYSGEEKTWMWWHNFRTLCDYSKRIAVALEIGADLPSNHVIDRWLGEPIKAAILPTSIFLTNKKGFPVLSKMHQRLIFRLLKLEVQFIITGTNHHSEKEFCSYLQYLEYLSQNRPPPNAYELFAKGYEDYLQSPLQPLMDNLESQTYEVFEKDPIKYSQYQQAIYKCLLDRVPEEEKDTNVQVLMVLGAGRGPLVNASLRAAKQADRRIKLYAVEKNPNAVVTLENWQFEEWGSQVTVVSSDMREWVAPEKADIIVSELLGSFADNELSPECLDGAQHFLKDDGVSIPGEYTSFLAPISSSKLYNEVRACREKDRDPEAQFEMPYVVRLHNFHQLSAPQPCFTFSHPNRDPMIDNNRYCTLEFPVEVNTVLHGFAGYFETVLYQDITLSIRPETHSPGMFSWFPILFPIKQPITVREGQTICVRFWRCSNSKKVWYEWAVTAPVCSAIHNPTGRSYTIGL
PRMT5/MEP50 complex, sequence (Q9BQA1 whole entry partner): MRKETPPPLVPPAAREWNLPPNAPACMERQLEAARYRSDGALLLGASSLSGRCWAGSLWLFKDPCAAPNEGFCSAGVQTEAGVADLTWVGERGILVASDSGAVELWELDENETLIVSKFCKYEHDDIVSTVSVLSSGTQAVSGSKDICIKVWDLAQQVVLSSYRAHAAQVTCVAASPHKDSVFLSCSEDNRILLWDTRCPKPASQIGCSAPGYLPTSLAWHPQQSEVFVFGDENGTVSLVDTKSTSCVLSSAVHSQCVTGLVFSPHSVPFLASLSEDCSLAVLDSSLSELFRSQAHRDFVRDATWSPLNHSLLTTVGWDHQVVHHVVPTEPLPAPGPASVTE
Compounds were solubilized, and 3-fold diluted in 100% DMSO. […] Standard reactions were performed in a total volume of […] assay buffer, with histone H2A (5 μM final) as substrate. To this was added the PRMT5/MEP50 complex diluted to provide a final assay concentration of 5 nM and the compounds were allowed to preincubate for 15 to 20 minutes at room temperature. The reaction was initiated by adding S-[3H-methyl]-adenosyl-L-methionine (PerkinElmer) to final concentration of 1 μM. Following a 60 minutes incubation at 30° C., the reaction was stopped by adding 100 μL of 20% TCA. Each reaction was spotted onto filter plate (MultiScreen FB Filter Plate, Millipore), and washed 5 times with PBS buffer, Scintillation fluid was added to the filter plate and read in a scintillation counter. IC50 values were determined by fitting the data to the standard 4 parameters with Hill Slope using GraphPad Prism software.
For `N/N=c1/nc[nH]c2c1c(F)cn2[C@@H]1C[C@H]([C@H](O)c2ccc(Cl)cc2)[C@@H](O)[C@H]1O` [Example 28-B, 7-[(1R,2S,3R,4R)-4-[(S)-(4-chlorophenyl)-hydroxy-methyl]-2,3-dihydroxy-cyclopentyl]-5-fluoro-H-pyrrolo[2,3-d]pyrimidin-4-one hydrazone hydrochloride], the IC50 worked out at 1160 nM. Same read-out and setting: in the case of `CO/N=c1/nc[nH]c2c1ccn2[C@@H]1C[C@H]([C@H](O)c2ccc(Cl)cc2)[C@@H](O)[C@H]1O` [Example 49-B, (1S,2R,3R,5R)-3-[(S)-(4-chlorophenyl)-hydroxy-methyl]-5-[(4Z)-4-methoxyimino-1H-pyrrolo[2,3-d]pyrimidin-7-yl]cyclopentane-1,2-diol hydrochloride] it was 543 nM; in that of `O/N=c1\nc[nH]c2c1ccn2[C@@H]1C[C@H]([C@H](O)c2ccc(F)c(F)c2)[C@@H](O)[C@H]1O` [Example 88-B, 7-((1R,2S,3R,4R)-4-((S)-(3,4-difluorophenyl)(hydroxy)methyl)-2,3-dihydroxycyclopentyl)-1,7-dihydro-4H-pyrrolo[2,3-d]pyrimidin-4-one oxime], 37 nM; in that of `CO/N=c1\nc[nH]c2c1ccn2[C@@H]1C[C@H]([C@H](O)c2ccc(F)c(F)c2)[C@@H](O)[C@H]1O` [Example 89-B, 7-((1R,2S,3R,4R)-4-((S)-(3,4-difluorophenyl)(hydroxy)methyl)-2,3-dihydroxycyclopentyl)-1,7-dihydro-4H-pyrrolo[2,3-d]pyrimidin-4-one O-methyl oxime], 95 nM.

Take `O/N=c1/nc[nH]c2c1ccn2[C@@H]1C[C@H]([C@H](O)c2ccc(Cl)c(Cl)c2)[C@@H](O)[C@H]1O` [Example 93-B, 7-((1R,2S,3R,4R)-4-((S)-(3,4-dichlorophenyl)(hydroxy)methyl)-2,3-dihydroxycyclopentyl)-1,7-dihydro-4H-pyrrolo[2,3-d]pyrimidin-4-one oxime]: the IC50 is 2.3 nM.

The test is the same for the next values; noted with them: histone H2A 5 μM, SAM 1 μM, enzyme 5 nM; read-out: PRMT5/MEP50 IC50.
Turning to `CCO/N=c1\[nH]cnc2c1ncn2[C@@H]1O[C@H]([C@](C)(O)c2ccc(Cl)c(Cl)c2)[C@@H](O)[C@H]1O` [Example 93, (2S,3S,4R,5R)-2-[(1R)-Example 931-(3,4-dichlorophenyl)-1-hydroxy-ethyl]-5-[(6Z)-6-ethoxyimino-1H-purin-9-yl]tetrahydrofuran-3,4-diol], the IC50 was 920 nM. Same read-out and setting: in the case of `CO/N=c1\[nH]cnc2c1ncn2[C@@H]1O[C@H]([C@](C)(O)c2ccc(Cl)c(C)c2)[C@@H](O)[C@H]1O` [Example 94, (2S,3S,4R,5R)-2-[(1R)-1-(4-chloro-3-methylphenyl)-1-hydroxy-ethyl]-5-[(6Z)-6-methoxyimino-1H-purin-9-yl]tetrahydrofuran-3,4-diol] it was 1620 nM; in that of `CCO/N=c1\[nH]cnc2c1ncn2[C@@H]1O[C@H]([C@](C)(O)c2ccc(Cl)c(C)c2)[C@@H](O)[C@H]1O` [Example 95, (2S,3S,4R,5R)-2-[(1R)-1-(4-chloro-3-methylphenyl)-1-hydroxy-ethyl]-5-[(6Z)-6-ethoxyimino-1H-purin-9-yl]tetrahydrofuran-3,4-diol], 699 nM. On to `CCO/N=c1\nc[nH]c2c1ccn2[C@@H]1O[C@H]([C@H](O)c2ccc(Cl)cc2)[C@@H](O)[C@H]1O` [Example 97, 7-((2R,3R,4S,5R)-5-((R)-(4-chlorophenyl)(hydroxy)methyl)-3,4-dihydroxytetrahydrofuran-2-yl)-1,7-dihydro-4H-pyrrolo[2,3-d]pyrimidin-4-one O-ethyl oxime], for which the IC50 was found to be 42 nM. Consider `CO/N=c1\nc[nH]c2c1c(CCO)cn2[C@@H]1O[C@H]([C@H](O)c2ccc(Cl)c(Cl)c2)[C@@H](O)[C@H]1O` [Example 100, 7-((2R,3R,4S,5R)-5-((R)-(3,4-dichlorophenyl)(hydroxy)methyl)-3,4-dihydroxytetrahydrofuran-2-yl)-5-(2-hydroxyethyl)-1,5-dihydro-4H-7l4-pyrrolo[2,3-d]pyrimidin-4-one O-methyl oxime], for which the IC50 stood at 1770 nM. On the same count and under the same terms, in the case of `C#Cc1cn([C@@H]2O[C@H]([C@H](O)c3ccc(Cl)cc3)[C@@H](O)[C@H]2O)c2[nH]cn/c(=N\OC)c12` [Example 101, 7-((2R,3R,4S,5R)-5-((R)-(4-chlorophenyl)(hydroxy)methyl)-3,4-dihydroxytetrahydrofuran-2-yl)-5-ethynyl-1,7-dihydro-4H-pyrrolo[2,3-d]pyrimidin-4-one O-methyl oxime] it was 308 nM; in that of `C#Cc1cn([C@@H]2O[C@H]([C@H](O)c3ccc(Cl)c(Cl)c3)[C@@H](O)[C@H]2O)c2[nH]cn/c(=N\OC)c12` [Example 104, 7-((2R,3R,4S,5R)-5-((R)-(3,4-dichlorophenyl)(hydroxy)methyl)-3,4-dihydroxytetrahydrofuran-2-yl)-5-ethynyl-1,5-dihydro-4H-7l4-pyrrolo[2,3-d]pyrimidin-4-one O-methyl oxime], 10.2 nM; in that of `C[C@@](O)(C1C=C(Cl)C(Cl)=CC1)[C@H]1O[C@@H](n2ccc3/c(=N\O)nc[nH]c32)[C@H](O)[C@@H]1O` (stereo partly drawn) [Example 105, 7-((2R,3R,4S,5S)-5-((1R)-1-(3,4-dichlorocyclohexa-2,4-dien-1-yl)-1-hydroxyethyl)-3,4-dihydroxytetrahydrofuran-2-yl)-1,7-dihydro-4H-pyrrolo[2,3-d]pyrimidin-4-one oxime], 0.2 nM.

`O[C@@H]1[C@H](O)[C@@H]([C@H](O)c2ccc(Cl)c(Cl)c2)O[C@H]1n1ccc2/c(=N/OCC(F)F)nc[nH]c21` [Example 106, 7-((2R,3R,4S,5R)-5-((R)-(3,4-dichlorophenyl)(hydroxy)methyl)-3,4-dihydroxytetrahydrofuran-2-yl)-1,4a,7,7a-tetrahydro-4H-pyrrolo[2,3-d]pyrimidin-4-one 0-(2,2-difluoroethyl) oxime]: the IC50 was 113 nM.

As to `CO/N=c1\nc[nH]c2c1c(F)cn2[C@@H]1O[C@H]([C@](C)(O)c2ccc(Cl)c(Cl)c2)[C@@H](O)[C@H]1O` [Example 107, 7-((2R,3R,4S,5S)-5-((R)-1-(3,4-dichlorophenyl)-1-hydroxyethyl)-3,4-dihydroxytetrahydrofuran-2-yl)-5-fluoro-1,7-dihydro-4H-pyrrolo[2,3-d]pyrimidin-4-one O-methyl oxime], the IC50 is 28 nM. On the same count and under the same terms, under `N/N=c1/nc[nH]c2c1ncn2[C@@H]1O[C@H]([C@H](O)c2ccc(Cl)cc2)[C@@H](O)[C@H]1O` [compound 39, (2R,3S,4R,5R)-2-[(R)-(4-chlorophenyl)-hydroxy-methyl]-5-(6-hydrazinopurin-9-yl) tetrahydrofuran-3,4-diol] stands 180 nM; under `CO/N=c1/nc[nH]c2c1ncn2[C@@H]1O[C@H]([C@H](O)c2ccc(Cl)cc2)[C@@H](O)[C@H]1O` [compound 53, (2R,3S,4R,5R)-2-[(R)-(4-chlorophenyl)-hydroxy-methyl]-5-[6-methoxyimino-3H-purin-9-yl]tetrahydrofuran-3,4-diol trifluoroacetic Acid Salt], 526 nM. The same measure, in the same setting: in the case of `CO/N=c1\nc[nH]c2c1c(F)cn2[C@@H]1OC([C@H](O)c2ccc(Cl)cc2)[C@@H](O)[C@H]1O` (stereo partly drawn) [compound 74, 7-((2R,3R,4S)-5-((R)-(4-chlorophenyl)(hydroxy)methyl)-3,4-dihydroxytetrahydrofuran-2-yl)-5-fluoro-1,7-dihydro-4H-pyrrolo[2,3-d]pyrimidin-4-one O-methyl oxime] it was 75.6 nM. For `CO/N=c1\nc[nH]c2c1ccn2[C@@H]1O[C@H]([C@H](O)c2ccc(C(F)(F)F)cc2)[C@@H](O)[C@H]1O` [compound 75, 7-((2R,3R,4S,5R)-3,4-dihydroxy-5-((R)-hydroxy(4-(trifluoromethyl)phenyl)methyl)tetrahydrofuran-2-yl)-1,7-dihydro-4H-pyrrolo[2,3-d]pyrimidin-4-one O-methyl oxime], the IC50 stood at 95.4 nM. Same read-out and setting: in the case of `N/N=c1\nc[nH]c2c1ccn2[C@@H]1O[C@H]([C@H](O)c2ccc(C(F)(F)F)cc2)[C@@H](O)[C@H]1O` [compound 76, (2R,3R,4S,5R)-2-((Z)-4-hydrazineylidene-1,4-dihydro-7H-pyrrolo[2,3-d]pyrimidin-7-yl)-5-((R)-hydroxy(4-(trifluoromethyl)phenyl)methyl)tetrahydrofuran-3,4-diol] it was 2.7 nM. Take `Cc1cn([C@@H]2O[C@H]([C@H](O)c3ccc(Cl)cc3)[C@@H](O)[C@H]2O)c2[nH]cn/c(=N\O)c12` [compound 77, 7-((2R,3R,4S,5R)-5-((R)-(4-chlorophenyl)(hydroxy)methyl)-3,4-dihydroxytetrahydrofuran-2-yl)-5-methyl-1,7-dihydro-4H-pyrrolo[2,3-d]pyrimidin-4-one oxime]: the IC50 came out at 118 nM.

Consider `CO/N=c1\nc[nH]c2c1ccn2[C@@H]1OC([C@](O)(c2ccc(Cl)cc2)C(F)(F)F)[C@@H](O)[C@H]1O` (stereo partly drawn) [compound 79, 7-((2R,3R,4S)-5-((R)-1-(4-chlorophenyl)-2,2,2-trifluoro-1-hydroxyethyl)-3,4-dihydroxytetrahydrofuran-2-yl)-1,7-dihydro-4H-pyrrolo[2,3-d]pyrimidin-4-one O-methyl oxime], for which the IC50 is 6460 nM.

The values above are taken from patent US11220524B2, “Selective inhibitors of protein arginine methyltransferase 5 (PRMT5)” (PRELUDE THERAPEUTICS, INCORPORATED, priority 2017, dated 2022).
